Experimental data: patent US10112918B2, “15-oxospiramilactone derivatives, preparation method and uses thereof” (Kunming Institute of Botany, The Chinese Academy of Sciences, priority 2013, dated 2018)
Read-outs that look alike come from different tables or passages of the source.

Assays:
Assay type in all cases: cell-based
[1] = tested on: SW-480 (human colon cancer cells); assay: MTT inhibition of tumor cell growth, SW-480; settings: Homo sapiens
Experimental: (§1) 1. Inoculating cells: the culture medium DMEM or RMPI1640 containing 10% fetal bovine serum was used to prepare a single cell suspension, and the cell suspension was inoculated to a 96-well plate at 5000-10000 cells per well (100 μl for each well); Adherent cells were inoculated and cultured for 12 h in advance. HL-60 (human promyelocytic leukemia cells), SMMC-7721 (human hepatoma cells), A-549 (Human lung adenocarcinoma cells), MCF-7 (human breast cancer cells), SW-480 (human colon cancer cells) were purchased from the Cell Bank of the Chinese Academy of Sciences, Shanghai.
(§2) 2. The solution of the compound to be tested (40 μM for primary screening; 5 concentrations were set for gradient re-screening for the compounds which achieve about 50% inhibition of tumor cell growth at 40 μM) was added, the final volume of each well was 200 μl, and triplicate wells were set for each test.
(§3) 3. Coloration: After culturing at 37° C. for 48 h, MTT solution (20 μl) was added to each well. After incubation for another 4 h, the culture was stopped. The supernatant in each well was pipetted and discarded, and 200 μl SDS solution (10%) was added to each well. Incubation was performed overnight (at 37° C.), to completely dissolve the crystal.
(§4) 4. Colorimetric assay: ELISA Reader (Bio-Rad 680) was used to obtain the light absorption for each well at a wavelength of 595 nm, the results were recorded. A cell growth curve was plotted with the concentration as abscissa and the cell survival percentage as ordinate. The two-point method (Reed and Muench method) was used to calculate the IC50 of the compound.

[2] = tested on: Wnt signaling pathway (Top-Flash reporter gene); assay: Top-Flash Wnt reporter gene assay in HEK293T cells with Wnt3a conditioned medium; settings: Homo sapiens, HEK-293T, 6 h, 6 h
Experimental: HEK293T cells were cultured in DMEM containing 10% fetal bovine serum (Invitrogen) at 37° C., 5% CO2. The cells were passaged every other day. The density was retained at 70˜80% during passage. L cell line (CRL-2647, purchased from the gene bank of ATCC, the US) and the control cell line (CRL-2648, purchased from ATCC, US), which stably secreted mouse Wnt3a protein, were cultured in DMEM containing 50 ug/ml G418 and 10% fetal bovine serum, at 37° C., 5% CO2. When the cells grew to a density of about 70%, the medium was replaced with DMEM containing 10% fetal bovine serum. After continuous culture for 4 days, the culture was collected and centrifuged, and the supernatant was kept so that the Wnt conditioned medium was obtained. After titration assay, the conditioned medium was quick-frozen in liquid nitrogen, and placed at −80° C. for long-term storage, so that the titer was kept unchanged.
The cells were seeded to a 48-well plate at a density of […] cells per well, and transfected 20 h later. The reagents for plasmid transfection were calculated based on the amount in each well of the 48-well plate as following: the total amount of plasmid was 125 ng/well; the plasmid was first added to a serum-free medium (25 μL/well) and mixed well; PLUS reagent (Invitrogen) was then added in an amount of 0.5 μL/well and mixed well, then stood for 15 min; Lipofectamine (Invitrogen) liposome was added in an amount of 0.5 μL/well to serum-free DMEM medium (25 μL/well), and then mixed with the solution containing the plasmid and the PLUS, and stood for 15 min. The cells were cultured in serum-free DMEM medium (100 μL/well), and the final mixture of plasmid, PLUS and Lipofectamine were added to the cells. After incubation for 3 h, the transfection was stopped by the medium containing 10% fetal bovine serum (200 μL/well).
The HEK293T cells used for activity assay of the report gene were transfected by the method as shown in 2). Activity assay of Wnt reporter gene: the amount of plasmid for transfection was 5 ng/well for TOP-flash and 5 ng/well for GFP plasmid as internal standard, with lacZ added to reach a total amount of 125 ng/well. […] After treating for 6 h, Boehringer Mannheim Luci-ferase Assay Kit was used to lyse cells (200 μL/well). 50 μL from each well was pipetted into a 96-well plate. The indensity of GFP protein in the cell lysate was measured by fluorimeter FL600 (BIO-TEK Inc. Winooski, Vt.), and taken as internal standard for cell transfection efficiency. 10 μL substrate of luciferase was then added to each well, and the activity of luciferase was measured by Micro Lumate Plus (Perkin Elmer Inc. Wellesley, Mass.) luminometer. Finally, GFP indensity was used as internal standard to calibrate the activity of luciferase, i.e. the activity of Wnt reporter gene.
Calculation of IC50 (taking the calculation of IC50 of the Wnt signaling pathway for example): background (the activity as measured in the groups treated with a conditioned medium containing DMSO only) was subtracted from the reporter gene activity as measured in the groups treated by Wnt3a conditioned medium with or without the compound to be tested at different concentrations; and the obtained value was defined as the activity of the reporter gene induced by Wnt or the residual activity of the reporter gene after adding the compound to be tested. The residual activity was normalized by the activity induced by Wnt to get the relative residual activity. Then combine with the concentrations of the compound to be tested to plot a linear graph, and a dose-effect curve was fitted based on 4-parameter logistic fit. IC50 of the Wnt signaling pathway is determined as the concentration at which the relative residual activity is 0.5.

[3] = tested on: A-549 (Human lung adenocarcinoma cells); assay: MTT inhibition of tumor cell growth, A-549; settings: Homo sapiens
Experimental: as §1, §2, §3, §4

[4] = tested on: SMMC-7721 (human hepatoma cells); assay: MTT inhibition of tumor cell growth, SMMC-7721; settings: Homo sapiens
Experimental: as §1, §2, §3, §4

[5] = tested on: MCF-7 (human breast cancer cells); assay: MTT inhibition of tumor cell growth, MCF-7; settings: Homo sapiens
Experimental: as §1, §2, §3, §4

[6] = tested on: HL-60 (human promyelocytic leukemia cells); assay: MTT inhibition of tumor cell growth, HL-60; settings: Homo sapiens
Experimental: as §1, §2, §3, §4

[7] = SW480, 48 h, Table 1, 7-hydroxy derivatives of S-3, read-out: IC50 SW-480
[8] = Table 7 (second), derivatives modified on 7-hydroxyl of S-3, HEK293T, Wnt3a conditioned medium, read-out: IC50 (μM), inhibitory activity on the Wnt signaling pathway
[9] = A549, 48 h, Table 1, 7-hydroxy derivatives of S-3
[10] = SMMC-7721, 48 h, Table 1, 7-hydroxy derivatives of S-3
[11] = MCF7, 48 h, Table 1, 7-hydroxy derivatives of S-3
[12] = HL-60, 48 h, Table 1, 7-hydroxy derivatives of S-3
[13] = read-out: IC50 (μM), inhibitory activity on the Wnt signaling pathway

Compound	IC50 [1, 7] [nM]	IC50 [2, 8] [µM]	IC50 [3, 9] [nM]	IC50 [4, 10] [nM]	IC50 [5, 11] [nM]	IC50 [6, 12] [nM]	IC50 ([2]; Table 9, HEK293T, Wnt3a conditioned medium, read-out: IC50(μM), inhibitory activity on the Wnt signaling pathway) [µM]	IC50 ([1]; SW480, Table 1, 7-hydroxy derivatives of S-3, 48 h, read-out: IC50 SW-480) [nM]	IC50 [2, 13] [µM]	IC50 ([3]; A549, Table 1, 7-hydroxy derivatives of S-3, 48 h) [nM]	IC50 ([4]; SMMC-7721, Table 1, 7-hydroxy derivatives of S-3, 48 h) [nM]	IC50 ([5]; MCF7, Table 1, 7-hydroxy derivatives of S-3, 48 h) [nM]	IC50 ([6]; HL-60, Table 1, 7-hydroxy derivatives of S-3, 48 h) [nM]
C=C1C(=O)[C@]23CC[C@H]1CC2[C@@]12CCC[C@@](C)(COC1=O)C2C[C@H]3OC(C)=O (some centres unmarked) [Compound 1b]	3440	14.2 ± 0.67	2830	3600	3480	1460	–	–	–	–	–	–	–
C=C1C(=O)[C@]23CC[C@H]1CC2[C@@]12CCC[C@@](C)(COC1=O)C2C[C@H]3OC(=O)CCl (some centres unmarked) [Compound 1c]	2860	17.9 ± 0.98	640	780	3670	1130	–	–	–	–	–	–	–
C=C1C(=O)[C@]23CC[C@H]1CC2[C@@]12CCC[C@@](C)(COC1=O)C2C[C@H]3OC(=O)CBr (some centres unmarked) [Compound 1d]	3000	28.8 ± 0.56	500	1230	3470	1050	–	–	–	–	–	–	–
C=C1C(=O)C23CC[C@H]1CC2[C@@]12CCC[C@@](C)(COC1=O)C2C[C@H]3OC(=O)C(F)(F)F (some centres unmarked) [Compound 1f]	7810	20.2 ± 2.59	6080	13000	2740	5720	–	–	–	–	–	–	–
C=CC(=O)O[C@@H]1CC2[C@@]3(C)CCC[C@@]2(C(=O)OC3)C2C[C@@H]3CCC21C(=O)C3=C (some centres unmarked) [Compound 1g]	6420	30 ± 2.22	5970	10200	5850	6860	–	–	–	–	–	–	–
C=C1C(=O)C23CC[C@H]1CC2[C@@]12CCC[C@@](C)(COC1=O)C2C[C@H]3OC(=O)CCCl (some centres unmarked) [Compound 1h]	3380	20.2 ± 0.99	2610	3500	2700	4590	–	–	–	–	–	–	–
C=C1C(=O)C23CC[C@H]1CC2[C@@]12CCC[C@@](C)(COC1=O)C2C[C@H]3OC(=O)[C@@H](C)Cl (some centres unmarked) [Compound 1i]	2500	28.3 ± 2.76	2590	3350	2580	3370	–	–	–	–	–	–	–
C=C1C(=O)C23CC[C@H]1CC2[C@@]12CCC[C@@](C)(COC1=O)C2C[C@H]3OC(=O)c1ccccc1 (some centres unmarked) [Compound 1j]	3950	14.7 ± 0.18	2970	740	3710	2990	–	–	–	–	–	–	–
C=C1C(=O)C23CC[C@H]1CC2[C@@]12CCC[C@@](C)(COC1=O)C2C[C@H]3OC(=O)c1cccs1 (some centres unmarked) [Compound 1o]	–	–	–	–	–	–	–	560	9.15 ± 1.14	490	600	1260	840
C=C1C(=O)C23CC[C@H]1CC2[C@@]12CCC[C@@](C)(COC1=O)C2C[C@H]3OS(C)(=O)=O (some centres unmarked) [Compound 1q]	3430	15.1 ± 2.89	4170	10500	3820	5150	–	–	–	–	–	–	–
C=C1C(=O)[C@@]23CC[C@@H](CC2[C@@]24CCC[C@@](C)(COC2)C14)C1(CO1)C3=O (some centres unmarked) [Compound 29]	–	–	–	–	–	–	> 60	–	–	–	–	–	–
C=C1C(=O)C23CC[C@@H](CC2[C@@]24CCC[C@@](C)(COC2)C14)C(=C)[C@@H]3O (some centres unmarked) [Compound 33]	–	–	–	–	–	–	–	–	12.1 ± 1.25	–	–	–	–

Further compounds by falling IC50 [1, 7], results first:

IC50 [1, 7] [nM]	IC50 [2, 8] [µM]	IC50 [3, 9] [nM]	IC50 [4, 10] [nM]	IC50 [5, 11] [nM]	IC50 [6, 12] [nM]	IC50 ([2]; Table 9, HEK293T, Wnt3a conditioned medium, read-out: IC50(μM), inhibitory activity on the Wnt signaling pathway) [µM]	Compound	IC50 ([1]; SW480, Table 1, 7-hydroxy derivatives of S-3, 48 h, read-out: IC50 SW-480) [nM]	IC50 [2, 13] [µM]	IC50 ([3]; A549, Table 1, 7-hydroxy derivatives of S-3, 48 h) [nM]	IC50 ([4]; SMMC-7721, Table 1, 7-hydroxy derivatives of S-3, 48 h) [nM]	IC50 ([5]; MCF7, Table 1, 7-hydroxy derivatives of S-3, 48 h) [nM]	IC50 ([6]; HL-60, Table 1, 7-hydroxy derivatives of S-3, 48 h) [nM]
2430	18.6 ± 1.48	2460	3600	3070	4200	–	C=C1C(=O)C23CC[C@H]1CC2[C@@]12CCC[C@@](C)(COC1=O)C2C[C@H]3OC(=O)c1ccc(OC)cc1 (some centres unmarked) [Compound 1l]	–	–	–	–	–	–
2370	22.14 ± 0.1	2960	4100	2740	4440	–	C=C1C(=O)C23CC[C@H]1CC2[C@@]12CCC[C@@](C)(COC1=O)C2C[C@H]3OC(=O)CN=[N+]=[N-] (some centres unmarked) [Compound 1e]	–	–	–	–	–	–
2220	18.9 ± 2.48	2140	3050	3110	4010	–	C=C1C(=O)C23CC[C@H]1CC2[C@@]12CCC[C@@](C)(COC1=O)C2C[C@H]3OC(=O)c1ccco1 (some centres unmarked) [Compound 1n]	–	–	–	–	–	–
2190	19 ± 1.61	1730	2650	1970	890	–	C=C1C(=O)C23CC[C@H]1CC2[C@@]12CCC[C@@](C)(COC1=O)C2C[C@H]3OC(=O)c1ccc(C(F)(F)F)cc1 (some centres unmarked) [Compound 1m]	–	–	–	–	–	–
2160	18.6 ± 1.26	790	1790	3400	1240	–	C=C1C(=O)C23CC[C@H]1CC2[C@@]12CCC[C@@](C)(COC1=O)C2C[C@H]3OC(=O)/C=C/c1ccccc1 (some centres unmarked) [Compound 1p]	–	–	–	–	–	–
1960	18.3 ± 0.66	2180	1670	2740	2390	–	C=C1C(=O)[C@]23CC[C@H]1CC2[C@@]12CCC[C@@](C)(COC1=O)C2C[C@H]3OC=O (some centres unmarked) [Compound 1a]	–	–	–	–	–	–
1170	8.92 ± 0.98	490	570	2060	580	–	C=C1C(=O)C23CC[C@H]1CC2[C@@]12CCC[C@@](C)(COC1=O)C2C[C@H]3OS(=O)(=O)Cc1ccccc1 (some centres unmarked) [Compound 1r]	–	–	–	–	–	–
690	10.7 ± 0.39	1050	2890	800	860	–	C=C1C(=O)C23CC[C@H]1CC2[C@@]12CCC[C@@](C)(COC1=O)C2C[C@H]3OC(=O)c1ccc([N+](=O)[O-])cc1 (some centres unmarked) [Compound 1k]	–	–	–	–	–	–
